Measurements taken from PubChem BioAssay AID1890 (The Scripps Research Institute Molecular Screening Center, 2009).
Activity calls are given as the source filed them. No rule for the calls is given here.

Biological target: Replicase polyprotein 1ab (Severe acute respiratory syndrome coronavirus) (UniProt P0C6X7)
Assay: SARS 3CLpro cleavage inhibition IC50 – biochemical, quenched FRET, dose response (AID 1890)
Conditions: purified 3CLpro, quenched FRET peptide cleavage

| Compound | IC50 |
| --- | --- |
| COc1ccccc1OCCNC(=O)c1cc(=O)[nH]c2ccccc12 | 3.6 µM |
| COc1ccc(C2CC(c3cccs3)=NN2C(=O)CCl)cc1OC (stereo unspecified) | 2.3 µM |
| CN(C)S(=O)(=O)c1cccc(NC(=O)CSc2cccc3cccnc23)c1 | inactive |
| O=C(Oc1ccc(Cl)cc1N1C(=O)CCC1=O)c1ccco1 | inactive |
| Cc1ccc(-c2cc(NC(=O)c3ccccc3[N+](=O)[O-])n[nH]2)cc1 | inactive |
| Cc1cc(C(=O)CCl)c(C)n1-c1cccc([N+](=O)[O-])c1 | 4.59 µM |
| Cc1cc(C)c(N(C(=O)Cn2nnc3ccccc32)C(C(=O)NC(C)(C)C)c2ccsc2)c(C)c1 (stereo unspecified) | 2.9 µM |
| CCC(C)c1ccc(N(C(=O)c2ccco2)C(C(=O)NC2CCCC2)c2cccnc2)cc1 (stereo unspecified) | 2.23 µM |
| CC(=O)NC1C(=O)N(CCN2CCOCC2)c2ccc(F)cc21 (stereo unspecified) | 9.1 µM |
| COc1ccc(C2C(O)C(c3c[nH]c4ccccc34)=NN2C(=O)CCl)cc1 (stereo unspecified) | 3.58 µM |
| O=C(Oc1cccnc1)c1ccc(Cl)cc1 | 6.31 µM |
| NC(=O)CCn1c(C(=O)c2cccc([N+](=O)[O-])c2)c2ccccc2[n+]1[O-] | inactive |
| CCc1ccc2c(c1)C(NC(C)=O)C(=O)N2CCN1CCOCC1 (stereo unspecified) | 6.56 µM |
| COc1ccc(C(=O)n2c(SC)nc3cc4c(cc32)OCCO4)cc1 | 1.08 µM |
| CC(C)C[C@H](NC(=O)c1nc[nH]c1C(=O)NCc1ccc(CNC(=O)OC(C)(C)C)cc1)C(=O)OC(C)(C)C | > 59.6 µM (inactive) |
| O=C(O)c1[nH]c2ccccc2c1C(c1cc(Br)ccc1O)c1c(C(=O)O)[nH]c2ccccc12 | > 59.6 µM (inactive) |
| O=C(CSc1ccccn1)Nc1nonc1[N+](=O)[O-] | 7.07 µM |
| Cc1ccc(C2=NN(C(=O)CCl)C(c3ccco3)C2)o1 (stereo unspecified) | 5.2 µM |
| Cc1cc(C)c(C)c(S(=O)(=O)N2CCN(C(=O)c3cc(=O)[nH]c4ccccc34)CC2)c1C | 4.83 µM |
| Cn1cnc2cc(NC(=O)c3ccc(Cl)cc3)ccc21 | inactive |
| CC(C)c1ccc(N(C(=O)c2ccco2)C(C(=O)NC2CCCC2)c2cccnc2)cc1 (stereo unspecified) | 5.93 µM |
| CCOc1ccc2c(c1)C(=O)C(=O)N2CC1COc2ccccc2O1 (stereo unspecified) | 4.29 µM |
| O=C(Nc1ccc(OCC(F)(F)C(F)F)c(C(F)(F)F)c1)c1ccccc1O | > 59.6 µM (inactive) |
| COc1cc(C2CC(c3cccs3)=NN2C(=O)CCl)ccc1OC(F)F (stereo unspecified) | 2.8 µM |
| CCCCOc1ccc(C(=O)Oc2cccnc2)cc1 | > 59.6 µM (inactive) |
| CC(=O)c1cc(-c2ccccc2)[nH]c1N1CCCC1 | 4.63 µM |

| Compound | IC50 |
| --- | --- |
| O=C(O)COc1ccc(Br)cc1C(c1c(C(=O)O)[nH]c2ccccc12)c1c(C(=O)O)[nH]c2ccccc12 | > 59.6 µM (inactive) |
| O=C(/C=C/c1cccs1)Nc1scc(-c2ccccc2)c1C(=O)O | 5.22 µM |
| Cc1cc(NC(=O)COn2nnc3ccc(S(C)(=O)=O)cc32)ccc1Br | inactive |
| CCc1cc(=O)oc2cc(OC(=O)c3ccco3)ccc12 | 2.96 µM |
| O=C(/C=C/c1ccc(Cl)c([N+](=O)[O-])c1)NCc1cccnc1 | inactive |
| Nc1ncc(Br)cc1S(=O)(=O)Nc1cc(C(F)(F)F)cc(C(F)(F)F)c1 | > 59.6 µM (inactive) |
| CC(=O)Nc1ccc(N(C(=O)Cn2nnc3ccccc32)C(C(=O)NC2CCCC2)c2ccc(O)c(O)c2)cc1 (stereo unspecified) | inactive |
| CCc1nc(N2CCN(C(=O)CCl)CC2)c2c3c(sc2n1)CC(C)CC3 (stereo unspecified) | 4.23 µM |
| CC1CCC2C(=O)N(c3cc(Cl)ccc3OC(=O)c3ccco3)C(=O)C2C1 (stereo unspecified) | 5.39 µM |
| O=C(CCl)N(CCc1ccccc1)CCc1ccccc1 | inactive |
| COc1cccc(/C=N/NC(=S)Nc2cccnc2)c1 | inactive |
| O=C1C(=O)N(C/C=C/c2ccccc2)c2ccccc21 | inactive |
| CC(=O)n1cc(N(C(=O)CCl)c2ccc([N+](=O)[O-])cc2)c2ccccc21 | inactive |
| COc1ccc(C(=O)Oc2cccnc2)cc1 | > 59.6 µM (inactive) |
| O=C(Cc1ccc(Cl)c(Cl)c1)Nc1cccnc1 | inactive |
| CCC(C)(C)NC(=O)C(c1ccc(O)cc1)N(C(=O)Cn1nnc2ccccc21)c1ccc(NC(C)=O)cc1 (stereo unspecified) | inactive |
| Cc1cc(NC(=O)COC(=O)C(Nc2ccc(C(F)(F)F)cc2Cl)C(C)C)no1 (stereo unspecified) | > 59.6 µM (inactive) |
| COC(=O)c1ccc(OC(=O)CN2C(=O)c3ccccc3C2=O)cc1 | > 59.6 µM (inactive) |
| Cc1ccc(C(=O)n2cnc3ccccc32)cc1C | inactive |
| Cc1cc(C)n(C(=O)c2ccc(C)c(Br)c2)n1 | inactive |
| C[C@@]12C(=O)N(c3cccc(Br)c3)C(=O)N1[C@H](c1ccc(Cl)cc1)[C@@H]1C(=O)N(C3CCCCC3)C(=O)[C@@H]12 | > 59.6 µM (inactive) |
| CC(C)c1ccc(N(C(=O)c2csnn2)C(C(=O)NC2CCCC2)c2cccnc2)cc1 (stereo unspecified) | inactive |
| Cc1nnc(SC(=O)N2c3ccccc3Sc3ccccc32)s1 | inactive |
| Cc1ccc(/C=C/C(=O)c2cc(Br)ccc2OC(=O)c2ccco2)cc1 | inactive |
| O=c1[nH]c(=O)n(-c2ccccc2F)c(O)c1/C=C1\C=Nc2ccccc21 | 9.47 µM |
| CC(=O)c1c(OC(=O)c2ccco2)c2ccccc2n1C | inactive |

| Compound | IC50 |
| --- | --- |
| Cc1ccc(C(=O)c2c3ccccc3[n+]([O-])n2CCC(N)=O)cc1 | 9.36 µM |
| COc1cccc(C(C(=O)Nc2ccc(F)cc2)N(C(=O)Cn2nnc3ccccc32)C2CC2)c1 (stereo unspecified) | inactive |
| O=C(Nc1ccccc1)NN(C(=O)CCl)c1ccccc1 | 9.64 µM |
| COc1ccc2c(c1)C(=O)C(=O)N2CC1COc2ccccc2O1 (stereo unspecified) | 9.74 µM |
| O=C(NCc1ccco1)C(c1ccco1)N(C(=O)Cn1nnc2ccccc21)c1ccc2c(c1)CCC2 (stereo unspecified) | inactive |
| O=C1C(=O)N(CCCc2ccccc2)c2ccccc21 | inactive |
| CCN(CC)C(=O)Cn1cc(/C=C2\C(=O)NC(=O)N(c3ccccc3F)C2=O)c2ccccc21 | inactive |
| O=C(/C=C/c1c(F)cccc1Cl)Nc1cccnc1 | inactive |
| CC(C)C12CN(C(=O)c3ccccc3[N+](=O)[O-])CC(C(C)C)(CN(C(=O)c3ccccc3[N+](=O)[O-])C1)C2=O | inactive |
| O=C(c1cc(=O)[nH]c2ccccc12)N1CCN(c2cccc(C(F)(F)F)c2)CC1 | 5.1 µM |
| O=C1NC(=O)N(c2ccccc2F)C(=O)/C1=C/c1cn(CC(=O)N2CCOCC2)c2ccccc12 | inactive |
| CCc1cccc(CC)c1N(COC)C(=O)Cn1nnc2ccccc21 | inactive |
| O=C(c1cc(=O)[nH]c2ccccc12)N1CCN(c2ccccc2)CC1 | 9.95 µM |
| O=C(O)c1ccc2ncsc2c1 | inactive |
| Cc1ccc(C(=O)Oc2ccc3c(c2)ncn3C)cc1 | inactive |
| O=C(Cn1nnc2ccccc21)c1ccc(Cl)cc1 | 9.91 µM |
| O=Cc1cn(Cc2ccccc2)nc1-c1cccnc1 | 7.21 µM |
| COc1ccccc1/C=C/C(=O)c1cc(Br)ccc1OC(=O)c1ccco1 | 8.94 µM |
| Cc1ccc(C(=O)O)cc1NC(=S)NC(=O)c1ccc(COc2ccccc2)cc1 | > 59.6 µM (inactive) |
| NC(=O)CCn1c(C(=O)c2cc(Cl)c(N)c(Cl)c2)c2ccccc2[n+]1[O-] | 9.81 µM |
| Cc1ccc2[nH]c3c(c2c1)CN(C(=O)CN1c2ccc(F)cc2CCC1C)CC3 (stereo unspecified) | inactive |
| O=C(N/N=C\c1c(O)ccc2ccccc12)c1cncc(Br)c1 | inactive |
| O=C(OCC(=O)N1c2ccccc2Sc2ccccc21)c1cccnc1 | inactive |
| COc1ccc(C(C(=O)NCC2CCCO2)N(C(=O)Cn2nnc3ccccc32)c2ccc(NC(C)=O)cc2)cc1 (stereo unspecified) | 9.35 µM |
| Cc1cc(=O)oc2cc(OC(=O)c3ccco3)ccc12 | 3.34 µM |
| COc1ccc(N(C(=O)Cn2nnc3ccccc32)C2(C(=O)NC3CCCC3)CCCCC2)cc1 | 7.89 µM |

| Compound | IC50 |
| --- | --- |
| CCC(C)(C)NC(=O)C(c1cccn1C)N(C(=O)Cn1nnc2ccccc21)c1ccc(NC(C)=O)cc1 (stereo unspecified) | 6.29 µM |
| O=C(Oc1ccc(Br)cc1C(=O)/C=C/c1ccccc1F)c1ccco1 | 7.12 µM |
| NC(=O)CCn1c(C(=O)c2ccc(Cl)cc2)c2ccccc2[n+]1[O-] | 4.88 µM |
| Cc1ccc(C2CC(c3cccs3)=NN2C(=O)CCl)cc1 (stereo unspecified) | 4.19 µM |
| Cc1cccc2c1N(CCOc1ccccc1)C(=O)C2=O | inactive |
| Cc1sc(NC(=O)CCl)c(C(=O)c2ccccc2)c1C | inactive |
| COc1cc(/C=N\NC(=O)Cn2nnc3ccccc32)cc(OC)c1OC | 5.18 µM |
| O=C1C(=O)N(CC2COc3ccccc3O2)c2ccccc21 (stereo unspecified) | inactive |
| CC1(C)C2CC=C(/C=N/NC(=S)Nc3cccnc3)C1C2 (stereo unspecified) | > 59.6 µM (inactive) |
| COc1cccc(C(C(=O)NCC2CCCO2)N(C(=O)Cn2nnc3ccccc32)c2ccc(NC(C)=O)cc2)c1 (stereo unspecified) | inactive |
| O=C(Cn1nnc2ccccc21)c1ccc(Br)cc1 | 4.01 µM |
| CCn1nc(-c2ccccc2)nc2c(=O)n(C)c(=O)nc1-2 | > 59.6 µM (inactive) |
| Cc1cccc(N2CCN(C(=O)c3cc(=O)[nH]c4ccccc34)CC2)c1C | 6.66 µM |
| Cc1ccc(C(=O)c2c3ccc(C(F)(F)F)cc3[n+]([O-])n2CCC(N)=O)cc1 | inactive |
| COc1cc2c(cc1OC)C(c1cc(Br)ccc1F)N(C(=O)CCl)CC2 (stereo unspecified) | 9.88 µM |
| Cn1nc(-c2ccc(Cl)cc2)nc2c(=O)n(C)c(=O)nc1-2 | > 19.9 µM (inactive) |
| COc1cccc(C(C(=O)NCc2ccco2)N(Cc2ccco2)C(=O)Cn2nnc3ccccc32)c1 (stereo unspecified) | 7.76 µM |
| N#CCC(=O)N/N=C/c1c(-c2ccccc2)n(-c2ccccc2)c2ccccc12 | > 59.6 µM (inactive) |
| O=C(/C=C/c1ccccc1Cl)Nc1cccnc1 | inactive |
| CC(=O)NC1C(=O)N(CCN2CCOCC2)c2ccc(Br)cc21 (stereo unspecified) | 7.58 µM |
| COc1ccc2cc(C3(C)NC(=O)N(CC(=O)NCc4ccco4)C3=O)ccc2c1 (stereo unspecified) | inactive |
| COc1ccc(N(Cc2cc(=O)[nH]c3ccccc23)C(=O)CCl)cc1 | inactive |
| Cc1cc(=O)oc2cc(NC(=O)Cc3ccccc3[N+](=O)[O-])ccc12 | > 59.6 µM (inactive) |
